By IC50 is commonly meant the midpoint of a concentration-inhibition curve. The inhibition is the change of the read-out against control, counted positive when it falls.

This is an account of results in ChEMBL document CHEMBL5247607, “Design, synthesis and biological evaluation of a new series of arylidene indanones as small molecules for targeted therapy of non-small cell lung carcinoma and prostate cancer” (Eur J Med Chem, 2022).

Activity calls are given as the source filed them. No cut-off for these calls is given here.

The subject of data set [1] is A549. Briefly: Cytotoxicity against human A549 cells assessed as inhibition of cell growth incubated for 24 hrs by MTT assay. It is filed as functional, cell-based. Particulars: A549, 24 h.
A short description of data set [2]: Cytotoxicity against human CCD 19Lu cells assessed as inhibition of cell growth incubated for 24 hrs by MTT assay. It is filed as toxicity, cell-based. Background: Tetrazolium assays rely on reduction of a dye to a coloured formazan, in cell work by metabolically active cells.
Data set [3] is described as follows: Selectivity index, ratio of IC50 for cytotoxicity against human CCD 19Lu cells to IC50 for cytotoxicity against human A549 cells. Particulars: CCD 19Lu cells versus A549 cells, read-out: Ratio IC50. Format: toxicity, cell-based.
Data set [4] deals with PANC-1. Briefly: Cytotoxicity against human PANC-1 cells assessed as inhibition of cell growth incubated for 24 hrs by MTT assay. It is filed as functional, cell-based. Particulars: PANC-1, 24 h.
Data set [5] is described as follows: Cytotoxicity against human hTERT-HPNE cells assessed as inhibition of cell growth incubated for 24 hrs by MTT assay. Format: toxicity, cell-based.
Data set [6] in a line: Selectivity index, ratio of IC50 for cytotoxicity against human hTERT-HPNE cells to IC50 for cytotoxicity against human PANC-1 cells. Format: toxicity, cell-based. Particulars: hTERT-HPNE cells versus PANC-1 cells, read-out: Ratio IC50.
In data set [7] the test system is PANC-1. Briefly: Inhibition of DNA synthesis in human PANC-1 cells at 6.51 uM incubated for 24 hrs by BrdU incorporation assay relative to control. Format: functional. Background: Dividing cells build labelled thymidine or BrdU into new DNA.
Data set [8] has as its system PANC-1. Briefly: Induction of apoptosis in human PANC-1 cells assessed as early apoptotic cells at IC50 incubated for 24 hrs by annexin V-FITC/PI staining based flow cytometry analysis (reference value: 0%). It is filed as functional. (Flow cytometry measures light scatter and fluorescence of single cells or particles in a stream.)
For data set [9], the system named is PANC-1. Briefly: Induction of apoptosis in human PANC-1 cells assessed as late apoptotic cells at IC50 incubated for 24 hrs by annexin V-FITC/PI staining based flow cytometry analysis (reference value: 0.2%). It is filed as functional.
For data set [10], the system named is PANC-1. Briefly: Induction of apoptosis in human PANC-1 cells assessed as total cell viability at IC50 incubated for 24 hrs by annexin V-FITC/PI staining based flow cytometry analysis (reference value: 84.4%). It is filed as functional.
The test system of data set [11] is PANC-1. Briefly: Induction of apoptosis in human PANC-1 cells assessed as total apoptotic cells at IC50 incubated for 24 hrs by annexin V-FITC/PI staining based flow cytometry analysis relative to control. It is filed as functional.
The subject of data set [12] is PANC-1. Briefly: Induction of apoptosis in human PANC-1 cells assessed as activation of caspase-3 by measuring caspase-3 positive cells at IC50 incubated for 24 hrs by flow cytometry analysis (reference value: 1.8%). Format: functional.
Data set [13] concerns PANC-1. Briefly: Induction of apoptosis in human PANC-1 cells assessed as activation of caspase-3 by measuring caspase-3 negative cells at IC50 incubated for 24 hrs by flow cytometry analysis (reference value: 98.5 %). Format: functional.
In data set [14] the test system is PANC-1. Briefly: Induction of mitochondrial membrane potential loss in human PANC-1 cells assessed as polarized cells at IC50 incubated for 24 hrs by JC-1 staining based flow cytometry assay (reference value: 92%). Format: functional.
The subject of data set [15] is PANC-1. Briefly: Induction of mitochondrial membrane potential loss in human PANC-1 cells assessed as depolarized cells at IC50 incubated for 24 hrs by JC-1 staining based flow cytometry assay (reference value: 5%). Format: functional.
Data set [16] relates to PANC-1. Briefly: Induction of morphological changes in human PANC-1 cells assessed as cell shrinkage at 6.51 uM incubated for 24 hrs by acridine orange/ethidium bromide staining based fluorescence microscopic analysis. Format: functional.
Data set [17] concerns PANC-1. Briefly: Induction of morphological changes in human PANC-1 cells assessed as chromatin condensation at 6.51 uM incubated for 24 hrs by acridine orange/ethidium bromide staining based fluorescence microscopic analysis. It is filed as functional, cell-based.
Data set [18] concerns PANC-1. Briefly: Induction of morphological changes in human PANC-1 cells assessed as formation of apoptotic bodies at 6.51 uM incubated for 24 hrs by acridine orange/ethidium bromide staining based fluorescence microscopic analysis. It is filed as functional, cell-based.
Data set [19] addresses Procathepsin L (Homo sapiens) (UniProt P07711). Briefly: Inhibition of cathepsin L (unknown origin) at 100 uM.
Data set [20] addresses Cathepsin D (Homo sapiens) (UniProt P07339). Briefly: Inhibition of cathepsin D (unknown origin) at 100 uM relative to control.

Cathepsin D (Homo sapiens), sequence (P07339 65-162 limits assumed): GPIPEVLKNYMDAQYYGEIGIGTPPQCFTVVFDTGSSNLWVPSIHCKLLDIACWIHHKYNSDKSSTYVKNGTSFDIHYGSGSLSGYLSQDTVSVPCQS
Cathepsin D (Homo sapiens), sequence (P07339 169-412 limits assumed): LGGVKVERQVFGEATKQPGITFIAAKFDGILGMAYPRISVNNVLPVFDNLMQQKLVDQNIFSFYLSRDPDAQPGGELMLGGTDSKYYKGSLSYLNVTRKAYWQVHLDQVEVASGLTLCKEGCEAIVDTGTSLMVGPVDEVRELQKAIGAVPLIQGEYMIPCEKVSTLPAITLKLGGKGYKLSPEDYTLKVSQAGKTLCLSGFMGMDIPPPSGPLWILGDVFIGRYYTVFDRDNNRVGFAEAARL
Procathepsin L (Homo sapiens), sequence (P07711 114-333 limits assumed): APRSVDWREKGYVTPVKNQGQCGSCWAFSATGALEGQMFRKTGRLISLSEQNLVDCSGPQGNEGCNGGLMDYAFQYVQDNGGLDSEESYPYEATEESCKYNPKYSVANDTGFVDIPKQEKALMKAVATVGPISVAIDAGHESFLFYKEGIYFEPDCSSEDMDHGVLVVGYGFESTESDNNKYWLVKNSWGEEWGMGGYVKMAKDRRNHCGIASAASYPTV

For the compound `CN(C)c1ccc(/C=C2\Cc3cc4c(cc3C2=O)OCO4)cc1`, the IC50 in [1] was 66.2 µM; in [4] it was less than 12.7 µM. Also, the IC50 at 24 h in data set [2] and in data set [5] was greater than 1630 µM throughout. Also, the selectivity ratio was greater than 24.6 in [3] and greater than 128 in data set [6]. This compound also registered an inhibition at 6.51 µM in data set [7] of 16.9%. Also, the Activity in data set [8] is reported as 24.7%; in data set [9], 15.9%; in data set [10], 50.4%; in [11], 40.6%; in data set [12] it was 4.7%; in data set [13], 96.5%. The Activity in data set [14] turned out to be 83.9%; in data set [15], 11%. Also, the outcome in [16], in data set [17] and in data set [18] was Active. For the same compound, the inhibition result in data set [19] was “inactive”. For the same compound, in [20], the inhibition is 27.5%.
